These results are taken from patent US8071506B2, “Synergistic herbicidal composition containing florasulam for weed control in turf” (Dow AgroSciences LLC, priority 2009, dated 2011).

Experiment in all cases: Field study of weed control in established turfgrass, percent control from visual weed cover
One test concerns White Clover (TRFRE). Type of test: in vivo, Trifolium repens. Conditions: for Observed percent control: Florasulam GR 15 g ai/ha. The protocol: (§1) Field studies were conducted in established turfgrass sites containing a natural population of target broadleaf weeds. Replicated trials, containing a minimum of three replications and having individual plots ranging in size from 25 to 50 ft. sq, were initiated in the early spring with turf and weeds still in dormancy or just beginning active growth. Studies containing two components (florasulam and dithiopyr or pendimethalin) were timed to coincide with typical preemergent crabgrass (Digitaria sp.) timing at the study location. Studies containing three components (florasulam, dithiopyr or pendimethalin, Trimec (2,4-D+dicamba+MCPP-p) or Scotts Plus 2 (2,4-D+MCPP-p) were timed as previous for the florasulam and dithiopyr or pendimethalin components followed by an application of Trimec or Scotts Plus 2 at peak dandelion bloom which occurs approximately six weeks after a typical preemergent application. Granule treatments were uniformly applied to individual plots using a common hand-shaker or shaker table method. Liquid applications were applied with a CO2 backpack sprayer calibrated to deliver 40 to 100 GPA at 40 to 60 PSI. Applications were generally made in the early morning when dew was present. Natural rainfall and supplemental irrigation were used to maintain healthy turf and active weed growth throughout the study period. Weed control evaluations were made by visually assessing percent weed cover of each weed species in each plot at the initiation of the study and at each evaluation interval, converting to percent control using the following formula: (1−(B/A))*100
(§2) A=percent weed cover at study initiation
(§3) B=percent weed at a specific evaluation interval after application
(§4) Using this method, control ranges occur between 0 and 100 percent where 0 corresponds to no control and 100 corresponds to complete kill. Percent cover of each weed species was made at approximately 2, 4 and 8 weeks after treatment.
(§5) The following equation was used to calculate the expected activity of mixtures containing two active ingredients, A and B: Expected=A+B−(A×B/100)
(§6) A=observed efficacy of active component A at the same concentration as used in the mixture.
(§7) B=observed efficacy of active component B at the same concentration as used in the mixture.
(§8) The following equation was used to calculate the expected activity of mixtures containing three active ingredients, A and B and C: Expected=A+B+C−((A×B)+(A×C)+(B×C)/100)+(A×B×C/10,000)
(§9) C=observed efficacy of active component C at the same concentration as used in the mixture.

The next test deals with Dandelion (TAROF). The test is classed as in vivo, Taraxacum officinale. The protocol: as §1, §2, §3, §4, §5, §6, §7, §8, §9
The subject of test [1] is Buckhorn Plantain (PLALA). Type of test: in vivo, Plantago lanceolata. Conditions: 27 DAT in turf; Pendimethalin GR 2300 g ai/ha, Florasulam GR 15 g ai/ha. The protocol: as §1, with “Weed control evaluations were made by visually assessing percent weed cover of each weed species in each plot at the initiation of the study and at each evaluation interval, converting to percent control using the following formula: (1−(B/A))*100” left out

[2] abbreviates: 28 DAT in turf, Dithiopyr GR 575 g ai/ha.
Where [3] appears, read: 36 DAT in turf, Dithiopyr GR 575 g ai/ha.
[4] abbreviates: 62 DAT in turf, Dithiopyr GR 575 g ai/ha.
[5] abbreviates: 36 DAT in turf, Dithiopyr GR 575 g ai/ha, Florasulam GR 15 g ai/ha.
[6] abbreviates: 56 DAT in turf, Dithiopyr GR 575 g ai/ha, Florasulam GR 15 g ai/ha.
The mark [7] stands for this setting: 57 DAT in turf, Dithiopyr GR 575 g ai/ha, Florasulam GR 15 g ai/ha, Trimec EC 4 Pt/A.
The mark [8] stands for this setting: 58 DAT in turf, Dithiopyr 2EW 575 g ai/ha, Florasulam SC 15 g ai/ha.
Setting [9] is: 59 DAT in turf, Dithiopyr GR 575 g ai/ha, Florasulam GR 15 g ai/ha, Trimec EC 4 Pt/A.
[10] abbreviates: 64 DAT in turf, Dithiopyr GR 575 g ai/ha, Florasulam GR 15 g ai/ha, Trimec EC 4 Pt/A.
Setting [11] is: 91 DAT in turf, Dithiopyr GR 575 g ai/ha, Florasulam GR 15 g ai/ha.
Setting [12] is: 55 DAT in turf, Pendimethalin GR 2300 g ai/ha, Scotts Plus 2 125 Lb/A.
Setting [13] is: applications made at the preemergent herbicide application timing.
Setting [14] is: 60 DAT in turf, Pendimethalin GR 2300 g ai/ha, Florasulam GR 15 g ai/ha, Scotts Plus 2 125 Lb/A.

Take `CSC(=O)c1c(C(F)F)nc(C(F)(F)F)c(C(=O)SC)c1CC(C)C` [Dithiopyr, S,S′-dimethyl 2-(difluoromethyl)-4-(2-methylpropyl)-6-(trifluoromethyl)-3,5-pyridinedicarbothioate]: the Observed percent control in the test on White Clover (TRFRE) (setting [2]) stood at 0%; in the test on White Clover (TRFRE) (setting [3]), 0%; in the test with White Clover (TRFRE) (setting [4]), 0%; with Dandelion (TAROF) (setting [5]) it was 0%; in the test on Dandelion (TAROF) (setting [6]) it was 29%; with Dandelion (TAROF) (setting [7]) it was 21%. Moreover, the Observed percent control is 21.7% with Dandelion (TAROF) (setting [8]), 27% in the test with Dandelion (TAROF) (setting [9]), 0% in the test on Dandelion (TAROF) (setting [10]) and 19% with Dandelion (TAROF) (setting [11]).

Regarding `COc1ncc(F)c2nc(S(=O)(=O)Nc3c(F)cccc3F)nn12` [Florasulam, N-(2,6-difluorophenyl)-8-fluoro-5-methoxyl[1,2,4]triazolo[1,5-c]pyrimidine-2-sulfonamide], the Observed percent control in the test with White Clover (TRFRE) (setting [2]) is 86.8%; in the test with White Clover (TRFRE) (setting [3]) it was 73%; in the test with White Clover (TRFRE) (setting [12]), 62.5%; in the test on White Clover (TRFRE) (setting [4]), 0%; in test [1], 26.7%; in the test on Dandelion (TAROF) (setting [5]) it was 20%. In addition, the Observed percent control with Dandelion (TAROF) (setting [6]) was found to be 0%; with Dandelion (TAROF) (setting [7]) it was 31%; in the test on Dandelion (TAROF) (setting [8]), 70%; with Dandelion (TAROF) (setting [9]), 0%; in the test with Dandelion (TAROF) (setting [14]) it was 20.6%; in the test on Dandelion (TAROF) (setting [10]), 30%. The molecule further displayed an Observed percent control with Dandelion (TAROF) (setting [11]) of 18%. For the same molecule, the “Control of white clover, in words” value in the test on White Clover (TRFRE) (setting [13]) is reported as “effectively controls”. In addition, the “Control of dandelion, in words” value in the test with Dandelion (TAROF) (setting [13]) was “effectively controls”.

Take `CCC(CC)Nc1c([N+](=O)[O-])cc(C)c(C)c1[N+](=O)[O-]` [Pendimethalin, N-(1-ethylpropyl)-3,4-dimethyl-2,6-dinitrobenzenamine]: the Observed percent control in the test with White Clover (TRFRE) (setting [12]) turned out to be 0%; in test [1] it was 0%; in the test with Dandelion (TAROF) (setting [14]), 21%.
